Legend:
[1] = DPPH radical scavenging activity; type: biochemical
Method: In order to extract an effective ingredient having an anti-oxidant activity from Cercis chinensis, an experiment was performed following the procedure represented in a schematic diagram of FIG. 1. Particularly, 1 kg of leaves and stems of Cercis chinensis, dried in shadow, were grinded to powder using a pulverizer, which was extracted by ethanol (EtOH) at room temperature twice at intervals of two weeks. For the extraction, ethanol solutions were prepared by adding ethanol gradually, 10% at a time, from 0% to 100%. The prepared ethanol solutions were used for the extraction. […] But, it looses absorbance when being scavenged. Based on that point, an anti-oxidant activity can be measured using DPPH. […] Then, each solution was distributed into a 96 well plate by 10 μl each, into which 190 μl of DPPH(Sigma, St. Louis, Mo, USA) solution whose ethanol concentration was 2×10^−4 M/ml was added. The plate was just left at room temperature for 30 minutes. Finally, OD517 was measured at 517 nm. For a control, DMSO was added instead of the sample, and changes of optical density were investigated. […] DDPH Radical Scavenging Activity (%)=(Acontrol−Asample)/(Acontrol)×100 <Mathematica Formula 1>
Acontrol: Optical density of control group (sample was not added),
Asample: Optical density of experimental group (sample was added).
In order to identify a fraction having an anti oxidant activity among hexane Fr, EtOAc Fr and BuOH Fr obtained above, a DPPH radical scavenging activity was measured using each extract of each fraction following the method used above. At this time, vitamin E, known to have high DPPH radical scavenging activity, was used as a comparing group.
At this time, BHA (tert-butyl-4 hydroxyanisole) and α-tocopherol, synthetic anti-oxidant agents, were used as positive controls.

[2] = Nitric oxide scavenging activity; type: biochemical
[3] = system: HEK-N/F cells; assay: Protection of cells from oxidative damage induced by t-butylhydroperoxide; type: cell-based, human; settings: 1.5 mM t-butylhydroperoxide 3 hours
Method: t-butylhydroperoxide is metabolized into a free radical intermediate as it comes in a cell, so that it causes lipid peroxidation, resulting in cell damage. This phenomenon is similar to that caused by oxidataive stress accumulated in cells and tissues. […] HEK-N/F, an epidermal cell line of a newborn baby, was treated with 1.5 mM of t-butylhydroxyperoxide for 3 hours.

[4] = system: HEK-N/F cells; assay: Cell protection from UV irradiation (DNA damage, ethidium homodimer fluorescence); type: cell-based, human; settings: 35 mJ/cm^2 UVB, Et2 fluorescence (DNA damage)
Method: UV irradiation induces DNA damage and DNA-protein connection by increasing active oxygen in cells. When HEK-N/F cells were irradiated by 35 mJ/cm^2 of UVB, DNA chains in nucleus were cut. After uniting the broken chains to ethidium homodimer (Et2), a DNA chain intercalating fluorescent dye, extent of fluorescence was measured to quantify the amount of DNA damage. Particularly, HEK-N/F cells were cultured on serum-free KGM medium (Clonetics), which were inoculated into wells of a 24-well plate by 0.5−4×10^4 cells/2 cm^2. Then, the cells were cultured for 18 hours, after which a sample was treated thereto for 2 hours. […] The cells exposed on UV were further cultured for 1-7 hours, and then, […] ethidium homodimer (Et2, Millipore) was added. 30 minutes later, fluorescence was measured with Millipore microplate fluorometer Cytofluor 2350 (excitation: 485 nm, emission: 645 nm).

[5] = system: HEK-N/F cells; assay: Prolongation of life span of a cell; type: cell-based, human; settings: 3 μg/ml during culture
Method: HEK-N/F cells were obtained from foreskin of a newborn baby after its fibroblasts, another major component of skin, were treated with uridine bromide. Then, the cells were cultured in DMEM medium supplemented with 10 FBS. HEK-N/F cells were diluted consecutively at the ratio of 1:4 during the culture. Before being treated with samples, the cells were grown up to 3 PDL (population doubling level). During the culture, each sample was administered by […]. Medium was replaced every three days by fresh medium supplemented with a culture solution containing the equal concentration of the sample.

[6] = system: HEK-N/F cells; assay: Telomere length / maximum PDL (Southern blot of TRFs); type: cell-based, human
Method: In the above Example 8, an extract of […] chinensis and active ingredients separated from the same were confirmed to have an effect of prolongation of life span of a cell. Thus, in this example, relation between the effect of prolongation of life span and the length of a telomere was investigated. Particularly, genomic DNA was extracted from each cell of different ages by using a nucleic acid extraction kit (Isoquick Nucleic Acid Extraction kit, ORCA Research Inc.), which was stored at 4° C. after being dissolved in Tris-EDTA solution (10 mM Tris-HCl, 1 mM EDTA, pH 8.0). 2 μl of 10×H buffer solution (TaKaRa), 2 μl of the extracted genomic DNA solution and distilled water were all mixed in a 1.5 ml tube, making final volume 19 μl. Then, 1 μl at of restriction enzyme […]) was added thereto. […] Then, the gel was immersed in 0.25 N HCl, followed by shaking for 15 minutes. The gel was washed twice with distilled water. This gel was dipped into denaturing solution (0.2 N NaOH, 0.6 M NaCl), followed by shaking for 25 minutes at room temperature. And then, the gel was washed three times with distilled water. On a blotting device filled with 6×SSC, nitrocellulose membrane (Optitran BA-S 85, Schleicher & Schuel), 3 mm filter paper, paper towel, glass plate and weight (2 kg) were loaded in that order, followed by blotting overnight. After the blotting was finished, membrane filter was soaked in 3×SSC, and then water was discarded smoothly. The positions of the wells on the membrane were marked. The membrane was placed between filter papers, followed by baking at 80° C. for overnight. […] After being dried, the membrane was covered with wrap and set in a cassette on which X-ray film (Scientific Imaging Film, Kodak) and intensifying screen were attached. Autoradiography was performed at -80° C. for overnight. Based on the developed film and the location of the membrane, the positions of the wells were marked by a magic pen. The density peak of TRFs was detected by a laser densitometer (UltroScan XL, Pharmacia) and its mobility was calculated.

DPPH radical scavenging activity IC50 ([1]; Table 3): 7.3 ± 0.3 µg/mL
SMILES: O=c1c(O)c(-c2cc(O)c(O)c(O)c2)oc2cc(O)cc(O)c12 [Chemical Formula 9, myricetin]
DPPH radical scavenging activity (in words) [1]: strong radical scavenging activity
Nitric oxide scavenging activity (in words) [2]: comparatively high nitric oxide scavenging activity
Cell survival rate (%) [3]: 61.0±4.5%
TBARS (pmol/mg protein) ([3]; compound 50.0 µg/ml): 810.7 ± 77.0 pmol/mg protein
fluorescence lower than that of a control [4]: 54.7%
average life span of a cell [5]: 56 days
life span, times as long as that of a control [5]: 1.6 times
telomere shortening speed delayed, comparing to control [6]: 1.6 times
maximum PDL ([6]; control 14.1): 23.1
